In US20250066425A1, “POLYPEPTIDE AND APPLICATION THEREOF IN PREPARATION OF ANTI-FIBROSIS DRUG” (priority 2022, published 2025):
Residues, ends and D or L forms follow the SMILES beside them.

Assay: toxic or side effect on mice after injection for several times (serum biochemistry)
Assay type: in vivo, C57 mice
Experimental: During sampling of the mice with myocardial infarction modeling for 4 weeks and intramyocardial injection of the polypeptide PAFRK29 for 5 times in Example 6, peripheral blood of the mice was collected into an anticoagulant tube and centrifuged at 1,000 g for 10 minutes. Serum of a supernatant was taken, and levels of blood urea nitrogen (BUN), serum alanine aminotransferase (ALT) and serum aspartate aminotransferase (AST) were determined by an automatic biochemical analyzer.

[1] = myocardial infarction mice, 4 weeks, intramyocardial injection 5 times, vs control group

## CC(C)[C@H](NC(=O)[C@@H]1CCCN1C(=O)[C@H](Cc1c[nH]cn1)NC(=O)[C@H](CCCCN)NC(=O)[C@H](Cc1ccc(O)cc1)NC(=O)[C@H](CCC(N)=O)NC(=O)[C@H](CCCNC(=N)N)NC(=O)[C@H](CO)NC(=O)[C@H](Cc1c[nH]cn1)NC(=O)[C@H](Cc1ccccc1)NC(=O)[C@H](Cc1ccc(O)cc1)NC(=O)[C@H](CCC(N)=O)NC(=O)CNC(=O)[C@H](CCC(N)=O)NC(=O)[C@H](Cc1ccccc1)NC(=O)[C@H](CCCNC(=N)N)NC(=O)[C@H](CCCNC(=N)N)NC(=O)[C@H](CCCNC(=N)N)NC(=O)[C@H](CCC(N)=O)NC(=O)[C@H](CCCNC(=N)N)NC(=O)[C@H](CCCNC(=N)N)NC(=O)[C@H](CCCCN)NC(=O)[C@H](CCCCN)NC(=O)[C@@H](N)CCCNC(=N)N)C(=O)NCC(=O)N[C@@H](Cc1ccc(O)cc1)C(=O)N[C@@H](CCC(=O)O)C(=O)NCC(=O)N[C@@H](CCCCN)C(=O)O [PAFRK29] (H-RKKRRQRRRFQGQYFHSRQYKHPVGYEGK-OH; N-terminus and C-terminus assumed)
At an effective anti-fibrosis dose
  toxic or side effect on the mice: no obvious toxic or side effect
[1]
  level of blood urea nitrogen (BUN): no obvious differences
  level of serum alanine aminotransferase (ALT): no obvious differences
  level of serum aspartate aminotransferase (AST): no obvious differences
